Where “and” joins values, the source holds several entries; their conditions need not be identical. Equal entries are not always repeated.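 These data come from cells grown in 96-well plates and exposed to compound for 48 hours at five concentrations. Abbreviation: GI50, concentration required for 50% inhibition of growth. At the TGI there is no net growth.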
What was measured:
Experiment in all cases: NCI anticancer screen, dose series, 48 h
[1] = test system: HL-60(TB) leukemia
[2] = test system: NCI-H226 lung
[3] = test system: OVCAR-3 ovarian
[4] = test system: SF-295 CNS
[5] = test system: RPMI-8226 leukemia
[6] = test system: SF-268 CNS
[7] = test system: KM12 colon
[8] = test system: OVCAR-8 ovarian
[9] = test system: K-562 leukemia
[10] = test system: MDA-MB-435

Structure (SMILES) | GI50 [1] [µM] | TGI [1] [µM] | GI50 [2] [µM] | TGI [2] [µM] | GI50 [3] | TGI [3] | GI50 [4] [µM] | TGI [4] | GI50 [5] | TGI [5] | GI50 [6] [µM] | TGI [6] | GI50 [7] [µM] | GI50 [8] [µM] | TGI [8] | GI50 [9] [µM] | TGI [9] | GI50 [10] [nM] | TGI [10] | TGI [7]
COc1ccc2c(c1)/C(=C\c1c(-c3ccccc3)nc3sccn13)C(=O)N2 | 5.09 | > 35.6 | 3.44 | 33.7 | 122 nM | 0.444 µM | 0.268 | 0.967 µM | 1570 nM | 5.51 µM | 2.11 | 13.4 µM | 1.55 | 20.9 | > 72.2 µM | 3.98 | > 41.9 µM | 40 | 0.287 µM | –
COc1ccc(OC)c(-c2cc(-c3ccc(Cl)cc3)nn2-c2ccccc2)c1 | 35.9 | > 100 | 33 | > 100 | 23700 nM | 46.7 µM | 33.5 | > 100 µM | 3290 nM | 26.5 µM | 18.2 | 57.8 µM | 23.1 | 24.4 | 93.9 µM | 5.89 | 42.4 µM | 18300 | 46.1 µM | > 100 µM
CCCCCCCC(=O)Nc1nc2[nH]c(CN3CCN(Cc4cccc(I)c4)CC3)c(CN3CCN(Cc4cccc(I)c4)CC3)c2c(=O)[nH]1 | 0.924 | 2.27 | 1.16 | 2.59 | 879 nM | 1.62 µM | 0.843 | 1.55 µM | 531 nM | 1.81 µM | 0.829 | 1.65 µM | 0.906 | 1.04 | 2.25 µM | 0.455 | 10.8 µM | 823 | 1.55 µM | 1.75 µM
CC(=O)CCc1ccc(Oc2c3ccccc3nc3occc23)cc1 | 8.67 | 74.5 | 15.5 | 34.3 | 14000 nM | 31.6 µM | 15.7 | 40.9 µM | 13800 nM | 53.9 µM | 18.9 | 38.1 µM | 16.1 | 15.7 | 41.4 µM | 25.2 | > 100 µM | 17700 | 43.9 µM | 40 µM
Cn1cnc(SC2=CC(=O)C=C3S[C@H]4C[C@@]23c2c(c(O)c3c5c2=NCCC=5C=N3)N4)c1CC(N)C(=O)O (stereo partly specified) | 3.18 | 8.27 | 15.8 | 33.8 | 3240 nM | 10.7 µM | 15.9 | 29.6 µM | 16300 nM | > 100 µM | 12.4 | 26.1 µM | 12.7 | 3.81 | 14.5 µM | – | > 87 µM | 1880 | 3.44 µM | 25.4 µM
CO[C@H]1/C=C/O[C@@]2(C)Oc3c(C)c(O)c4c(O)c(c(/C=N/N5C(C)CN(Cc6ccc(C#N)cc6)CC5C)c(O)c4c3C2=O)NC(=O)/C(C)=C\C=C\[C@H](C)[C@H](O)[C@@H](C)[C@@H](O)[C@@H](C)[C@H](OC(C)=O)[C@@H]1C (stereo partly specified) | 7.19 | 18.6 | 6.06 | 12.9 | 6990 nM | 13.5 µM | 2.88 | 12.2 µM | – | – | 9.58 | 24.1 µM | 5.89 | 10.4 | 38.9 µM | 6.71 | 25.3 µM | 8580 | 23.5 µM | 12.7 µM
O=C(Nc1ccc(Cl)cc1)c1cc(NCc2cc(O)ccc2O)ccc1O | 1.4 | 4.86 | – | – | 2900 nM | 9.9 µM | 15.4 | 36.3 µM | 570 nM | 4.41 µM | 3.04 | 14 µM | 3.33 | 4.35 | 20.1 µM | 2.65 | 8.53 µM | 12000 | 27.2 µM | 14.6 µM
CCOc1ccc(Nc2ccnc3cc(Cl)ccc23)cc1 | > 100 | > 100 | 79.7 | > 100 | > 100000 nM | > 100 µM | 34.4 | > 100 µM | > 100000 nM | > 100 µM | 57 | > 100 µM | 84.1 | 79.9 | > 100 µM | 32.3 | > 100 µM | > 100000 | > 100 µM | > 100 µM
O=C(N/N=C/c1ccc([N+](=O)[O-])cc1)c1ccccc1Nc1ccnc(C(F)(F)F)c1 | 14.2 | 47.3 | 15.5 | 74.3 | 4540 nM | > 100 µM | 11.2 | 32.4 µM | 1610 nM | 14.5 µM | 10.5 | 82.8 µM | 2.75 | 11.6 | 49.8 µM | 11 | > 100 µM | 14700 | 35.1 µM | 55.4 µM
Oc1cccc2ccc(SSc3ccc4cccc(O)c4n3)nc12 | – | 56.7 | – | > 100 | – | 34.7 µM | – | 33.7 µM | – | > 100 µM | – | 75.4 µM | – | – | 36.3 µM | – | > 100 µM | – | 37.5 µM | 29.5 µM
Cc1ccc(NC(=O)CCc2nnc3s/c(=C\C=C\c4ccccc4)c(=O)n23)cc1 | – | > 79.7 | – | > 100 | – | > 87.2 µM | – | > 100 µM | – | > 82.1 µM | – | > 100 µM | – | – | 77.4 µM | – | > 100 µM | – | > 100 µM | > 100 µM
CC1(C)N=C(N)N=C(N)N1c1cccc(CCCCc2ccc(Cl)c(S(=O)(=O)F)c2)c1 | 0.563 | 12.1 | 8.38 | 28.5 | 5580 nM | 18.5 µM | 2.56 | 13.4 µM | 4970 nM | 25.1 µM | 1.47 | 16.2 µM | 1.79 | 9.28 | > 100 µM | 0.521 | 15.2 µM | 445 | 15.7 µM | 15.6 µM
O=C(O)c1nn(-c2ccc(Cl)cc2)c2c1C(=O)c1ccccc1C2=O | – | > 100 | – | > 100 | – | > 100 µM | – | > 100 µM | – | > 100 µM | – | > 100 µM | – | – | > 100 µM | – | > 100 µM | – | > 100 µM | > 100 µM
Oc1ccc(Br)cc1C=NC1CCCCC1 | – | 44.5 | – | – | – | > 100 µM | – | > 100 µM | – | > 100 µM | – | > 100 µM | – | – | > 100 µM | – | > 100 µM | – | > 100 µM | > 100 µM
O=c1cccccc1O | – | 43.7 | – | > 100 | – | > 100 µM | – | > 100 µM | – | > 100 µM | – | > 100 µM | – | – | > 100 µM | – | > 100 µM | – | > 100 µM | > 100 µM
COc1cc(/C=C2\C[C@H]3[C@@H]4CC=C5C[C@@H](O)CC[C@]5(C)[C@H]4CC[C@]3(C)[C@H]2O)ccc1OCCN1CCCCC1 | 1.33 | 3.18 | 2.53 | 5.62 | 772 nM | 1.53 µM | 0.906 | 1.75 µM | 776 nM | 1.98 µM | 1.74 | 12.5 µM | 0.912 | 1.57 | > 12.1 µM | 0.491 | 1.32 µM | 945 | 1.8 µM | 2.12 µM
NC(CCl)=NCC12CC3CC(CC(C3)C1)C2 | 1.06 | 3.78 | 1.43 | 11.3 | 687 nM | 7.23 µM | 2.29 | 16.2 µM | – | – | 1.9 | 12.1 µM | 0.96 | 0.877 | 19.4 µM | 0.5 | 5.21 µM | 474 | 7.11 µM | 3.47 µM
OCC#Cc1ccccc1C#Cc1ccc(C#Cc2ccccc2C#CCO)cc1 | 90.5 | > 100 | 56.8 | > 100 | 20000 nM | 56.6 µM | 22.7 | 62.6 µM | 26400 nM | 89.3 µM | 35.1 | > 100 µM | 95.8 | 79.1 | > 100 µM | 34 | > 100 µM | > 100000 | > 100 µM | > 100 µM
FC(F)(F)c1cccc(Oc2ccc(Nc3ncnc4ccc(OCCCN5CCOCC5)cc34)cc2Cl)c1 | 2.03 | 4.88 | 15 | 41 | 1460 nM | 3.56 µM | 1.75 | 3.49 µM | – | – | 2.06 | 6.82 µM | 2.29 | 3.22 | 21.2 µM | 1.5 | 5.47 µM | 1630 | 3.39 µM | 5.59 µM
COC(=O)[C@@H](C)C[C@H](Cc1ccccc1)NC(=O)c1csc([C@@H](C[C@H](C(C)C)N(C)C(=O)[C@@H](NC(=O)[C@H]2CCCCN2C)c2ccc(F)cc2)OC(C)=O)n1 | 0.00219 | – | – | – | 3.09 nM and 10.3 nM | 0.0157 µM and 0.129 µM | – | 25 µM and > 100 µM | 5.04 nM and 2.5 nM and 20.7 nM | 25 µM and 22 µM | – | 25 µM and > 100 µM | – | – | 25 µM and > 100 µM | – | 25 µM and 20.8 µM | 0.81 | 0.00514 µM and 0.0274 µM | 25 µM and > 100 µM

Reference: PubChem BioAssay (NCI)
